Experimental data published in patent US11840523B2, “IRE1α inhibitors and uses thereof” (The Regents of the University of California, priority 2020, dated 2023).
pIC50: −log10 of the molar value.

Assays:
IRE1α [1] = molecular target: T1, IRE1α (Homo sapiens (Human), UniProt O75460); experiment: In vitro Kdimer assay (XBP1-mini substrate cleavage) with IRE1α*; type: biochemical; conditions: ligand-bound IRE1α*; FIG. 1E, FIG. 5
Excerpt: (§1) In order to better understand how to achieve an optimal intermediate RNase activation state through engagement of IRE1α's kinase domain, we first established a quantitative in vitro framework for characterizing how ATP-binding site occupancy influences RNase activity. […] This dimeric state-commonly referred to as the “back-to-back” dimer—is characterized by an extensive interface between the kinase and RNase domains of each IRE1α protomer; this dimeric state can be promoted through mass action as IRE1α concentration is raised. […] Furthermore, ligands that occupy the ATP-binding site of the kinase domain can also stimulate IRE1α's RNase activity by promoting dimer formation. We measured the ability of a purified, recombinant kinase/RNase domain construct of IRE1α-called IRE1α* to cleave a FRET-quenched XBP1 RNA mini-substrate as a function of IRE1α* concentration, in order to provide a quantitative metric of IRE1α's dimer affinity (Kdimer) (FIG. 1). […]
IRE1α* or dPIRE1α* was titrated from either 2 μM or 4 μM in two-fold serial dilutions in assay buffer (20 mM Tris, 50 mM sodium chloride, 1 mM MgCl2, 2 mM DTT, 0.05% Triton X-100 (v/v), pH 7.5) and incubated with 50 μM inhibitor for 30 minutes at room temperature. […] Fluorescence was detected on a Perkin Elmer Envision Microplate Reader at excitation and emission wavelengths of 650 nm and 665 nm. […]

[2] = system: XBP1 splicing in INS-1 cells; experiment: XBP1 splicing in ER-stressed INS-1 cells; type: cell-based, rat; conditions: INS-1 cells treated with brefeldin A or thapsigargin; FIG. 6
Procedure: INS-1s (rat insulinoma beta cells) were grown in RPMI, 10% FBS buffer (v/v), 1 mM sodium pyruvate, 10 mM HEPES, 2 mM glutamine and 50 μM β-mercaptoethanol on Poly-D-Lysine coated tissue culture flasks. IRE1α (murine) was cloned into a pcDNA5/FRT/TO. INS-1 FRT/TO cells were grown following the protocol above. INS-1 FRT/TO cells were transfected with 2 μg IRE1α-pcDNA5/FRT/TO and 2 μg pOG44 using Lipofectamine 2000 (Thermo Fisher). Cell media was exchanged the next day and cells were allowed grow for another day before passaging. Selection was performed using 50 μg/mL Hygromycin-B (Thermo Fisher) over about two weeks until all un-transfected cells have died and colonies have appeared in transfected cells. Stably integrated cells were maintained in RPMI, 10% FBS buffer (v/v), 1 mM sodium pyruvate, 10 mM HEPES, 2 mM glutamine and 50 μM β-mercaptoethanol, […] Hygromycin-B. HEK293 cells were grown in DMEM High Glucose media (Gibco) supplemented with 10% FBS. […]
INS-1 or isogenic IRE1α-overexpressing INS-1 cells were plated onto Poly-D-Lysine coated tissue culture plate and grown for 48 hrs. […] PCR fragments were then digested by PstI, resolved on 3% agarose gels, stained with EtBr and quantified by densitometry using ImageJ (NIH). For standard mRNA detection, generally […] total RNA was reverse transcribed using the QuantiTect Reverse Transcription Kit (QIAGEN). […]

IRE1α [3] = molecular target: T1, IRE1α; experiment: In vitro kinase activity assay (IC50 IRE1α kinase inhibition); type: biochemical
Procedure: A construct containing the cytosolic kinase and RNase domains of human IRE1α (residues 547-977, IRE1α*) was expressed in SF9 insect cells by using the Bac-to-Bac baculovirus expression system (Invitrogen) with a His6 tag at the N-terminus and purified with a nickel-nitriloacetic acid (Qiagen) column. To generate dP-IRE1α*, we removed basal phosphorylation sites by incubating IRE1α* with λ-PPase (New England Biolabs) at a molar ratio of 5:1 (IRE1α*: X-PPase) in 50 mM HEPES pH 7.5, 100 mM NaCl, 1 mM MnCl2, 2 mM dithiothreitol (DTT) and 0.01% Brij 35 detergent (v/v) overnight at 4° C. Dephosphorylation was verified through western blotting using a universal phospho-protein detection agent (biotin-pIMAGO (Tymora Analytical Operations, Cat. No.: FL800) and imaged using a streptavidin-linked fluorophore.
In Vitro Kinase Activity Assay
Inhibitors (initial concentration of 10 or 60 μM, three-fold serial dilutions) were incubated with IRE1α* in cleavage buffer (20 mM HEPES, 0.05% Triton X-100 (v/v), 50 mM KCl, 1 mM MgCl2, 1 mM DTT, pH 7.5) for 30 min, followed by incubation with 10 μCi [γ^32P] ATP(3,000 Ci mmol^−1, PerkinElmer) at 23° C. for 3 hours. Samples were then spotted onto glass fiber paper (Easytab-C Glass Fiber Filter Paper, Perkin Elmer) and washed in twice with 0.5% phosphoric acid and autoradiographed using a GE Typhoon FLA 9000 Imager. Blots were quantitated using ImageQuant software. The percent inhibition was quantified by setting the background (no kinase well) as 0 and standardizing to IRE1α* without compound treatment (IRE1α*+DMSO). Dose-response curves were fit using “one-site fit logIC50” parameter using GraphPad Prism analysis software.
Compound Characterization (IC50 IRE1α Kinase Inhibition)

dpIRE1α* = dpIRE1α* (Homo sapiens (Human), UniProt O75460); experiment: In vitro Kdimer assay (XBP1-mini substrate cleavage) with dpIRE1α*; type: biochemical; conditions: FIG. 4; for fold lowering of Kdimer of dpIRE1α* when kinase domain complexed to ligand: versus apo dpIRE1α*, FIG. 1D
Excerpt: as §1
IRE1α* or dPIRE1α* was titrated from either 2 μM or 4 μM in two-fold serial dilutions in assay buffer (20 mM Tris, 50 mM sodium chloride, 1 mM MgCl2, 2 mM DTT, 0.05% Triton X-100 (v/v), pH 7.5) and incubated with 50 μM inhibitor for 30 minutes at room temperature. […] Fluorescence was detected on a Perkin Elmer Envision Microplate Reader at excitation and emission wavelengths of 650 nm and 665 nm. Reaction process was monitored real time in 10-second intervals for at least 30 minutes. Initial rates of XBP1-cleavage were determined for each respective IRE1α* of dpIRE1α* concentration. Specific activity was then determined by dividing rate (RFU/s) by the respective IRE1α* of dpIRE1α* used (RFU/s*[IRE1α]). Kdimer values were determined by fitting these values using the non-linear regression ‘one-site total’ binding parameter in GraphPad Prism analysis software.

T1 sequence (O75460 547-977): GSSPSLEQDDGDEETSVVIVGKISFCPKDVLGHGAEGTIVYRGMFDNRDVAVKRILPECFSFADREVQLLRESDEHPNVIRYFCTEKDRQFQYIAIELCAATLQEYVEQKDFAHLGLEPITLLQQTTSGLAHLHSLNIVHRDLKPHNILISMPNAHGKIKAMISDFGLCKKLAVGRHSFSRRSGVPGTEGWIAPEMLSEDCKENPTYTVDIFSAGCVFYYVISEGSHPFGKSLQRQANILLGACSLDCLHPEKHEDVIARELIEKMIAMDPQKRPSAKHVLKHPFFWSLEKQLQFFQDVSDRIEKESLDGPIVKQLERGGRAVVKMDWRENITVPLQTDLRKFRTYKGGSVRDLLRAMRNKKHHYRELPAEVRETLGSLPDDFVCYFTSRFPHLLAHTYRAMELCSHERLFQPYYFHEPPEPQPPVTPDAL
Sequence of dpIRE1α* (O75460 547-977): as above

## Cc1ccc2c(NS(=O)(=O)c3ccccc3Cl)cccc2c1Oc1ncccc1-c1ccnc(N[C@H]2CCCNC2)n1 [KIRA8]
IRE1α [1]
  formation of RNase active dimers of IRE1α*: unable to form RNase active dimers at any concentration tested
[2]
  XBP1 splicing: completely suppresses XBP1 splicing

## CCc1cc(-c2ccc(NS(=O)(=O)CCC(F)(F)F)nc2OC)cc2cnc(N[C@H]3CC[C@H](N)CC3)nc12 [LBC-0000406, N-(5-(2-(((1r,4r)-4-aminocyclohexyl)amino)-8-ethylquinazolin-6-yl)-6-methoxypyridin-2-yl)-3,3,3-trifluoropropane-1-sulfonamide]
IRE1α [3]
  pIC50: 8.13

## CCc1cc(-c2ccc(NS(=O)(=O)CC(F)(F)F)nc2OC)cc2cnc(N[C@H]3CC[C@H](N)CC3)nc12 [LBC-0000407, N-(5-(2-(((1r,4r)-4-aminocyclohexyl)amino)-8-ethylquinazolin-6-yl)-6-methoxypyridin-2-yl)-2,2,2-trifluoroethane-1-sulfonamide]
IRE1α [3]
  pIC50: 8.12

## O=C(Nc1c[nH]nc1-c1nc2ccc(CN3CCOCC3)cc2[nH]1)NC1CC1 [AT9283]
dpIRE1α*
  fold lowering of Kdimer of dpIRE1α* when kinase domain complexed to ligand: over 80 fold

## CCc1cc(-c2ccc(NS(=O)(=O)C3CC3)nc2OC)cc2cnc(N[C@H]3CC[C@H](N)CC3)nc12 [LBC-0000408, N-(5-(2-(((1r,4r)-4-aminocyclohexyl)amino)-8-ethylquinazolin-6-yl)-6-methoxypyridin-2-yl) cyclopropane sulfonamide]
IRE1α [3]
  pIC50: 8.29

## NC(=O)Nc1cc(-c2cccc(F)c2)sc1C(=O)N[C@H]1CCCNC1 [AZD7762]
dpIRE1α*; dpIRE1α*-ligand complex
  formation of the RNase active dimer of dpIRE1α*: promotes the formation of the RNase active dimer
dpIRE1α*
  fold lowering of Kdimer of dpIRE1α* when kinase domain complexed to ligand: over 80 fold
IRE1α [1]
  formation of RNase active dimers of IRE1α*: promotes the formation of the RNase active dimer

## CCc1cc(-c2ccc(NS(=O)(=O)c3ccccc3Cl)nc2OC)cc2cnc(N[C@H]3CC[C@H](N)CC3)nc12 [LBC-0000405]
IRE1α [3]
  pIC50: 8.29
